One data set relates to T-cell proliferation. Nature of the data set: T-Lymphocyte proliferation assay (PHA-activated PBMCs, Alamar blue). It counts as cell-based. The conditions noted are these: human PBMC T-cells activated with phytohemagglutinin-L, 48 h, in vitro; for IC50: T-cell, read-out: IC50 against T-cell proliferation. In general terms: Alamar Blue is a resazurin reagent that responds to reducing activity.

Data set [1] has as its target T1, human placental aromatase enzyme (Homo sapiens, UniProt P11511).
T1 construct: from tissue; host or cells: human placenta
T1 sequence (P11511 1-503): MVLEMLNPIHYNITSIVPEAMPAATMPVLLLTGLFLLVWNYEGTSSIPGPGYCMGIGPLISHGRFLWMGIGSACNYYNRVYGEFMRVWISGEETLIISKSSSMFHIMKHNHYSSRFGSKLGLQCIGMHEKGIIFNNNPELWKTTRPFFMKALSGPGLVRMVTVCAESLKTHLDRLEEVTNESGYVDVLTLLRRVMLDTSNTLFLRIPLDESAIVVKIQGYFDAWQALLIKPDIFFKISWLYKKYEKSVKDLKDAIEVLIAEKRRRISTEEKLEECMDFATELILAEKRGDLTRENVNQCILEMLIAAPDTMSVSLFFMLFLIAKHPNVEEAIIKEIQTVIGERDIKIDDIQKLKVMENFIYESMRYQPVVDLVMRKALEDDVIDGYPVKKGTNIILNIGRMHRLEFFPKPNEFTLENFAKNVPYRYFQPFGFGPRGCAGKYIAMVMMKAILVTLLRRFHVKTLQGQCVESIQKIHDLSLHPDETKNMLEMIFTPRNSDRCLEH
As to the kind of experiment: Human placental aromatase inhibition assay. Type of data set: biochemical.

A further data set concerns TNF-α production. As to the kind of experiment: Cytokine inhibition assay (TNF-α by ELISA in LPS-stimulated, PMA-differentiated THP-1 cells). Type of data set: cell-based, human. The conditions noted are these: for IC50: Homo sapiens, read-out: IC50 against TNF-α production. In general terms: An ELISA detects its analyte on a solid surface through an enzyme-linked reagent.

The subject of data set [2] is nitric oxide (NO) production. As to the kind of experiment: Nitric oxide assay (LPS-induced J774.2 macrophages, Griess method). Type of data set: cell-based, mouse.
Data set [3] can be described thus: Cytotoxicity against BJ normal cell line. The conditions noted are these: human, BJ normal human fibroblast cells.
The mark [4] stands for this setting: testosterone to 17β-estradiol conversion, in vitro, read-out: IC50 against human placental aromatase enzyme.
[5] abbreviates: THP-1 cells differentiated with PMA, LPS-stimulated, 4 h, in vitro.
Setting [6] is: Mus musculus, J774.2, read-out: IC50 against nitric oxide (NO) production.
[7] abbreviates: J774.2 mouse macrophages, LPS-induced, in vitro, read-out: IC50 against nitric oxide (NO) production.

Where a name gives a salt, the structure may show the parent alone. Read-outs that look alike come from different tables or passages of the source.

For `C[C@@H]1Cc2cc(O)ccc2[C@@H]2[C@@H]1[C@@H]1CC[C@](C)(O)[C@@]1(C)C[C@@H]2O` [Compound 3, 11β,17β-dihydroxy-7α,17α-dimethyl-estra-1,3,5-triene-3-one], the values for the IC50 (in the data set on T-cell proliferation; in data set [1] (setting [4]); in data set [2] (setting [6])) were 4.24 ± 0.2 µM, 0.317 ± 0.012 µM and 49.1 ± 0.4 µM, respectively. Besides, the “IC50 against TNF-α production” value in the data set with TNF-α production (setting [5]) is “inactive”.

With `C[C@]12C=CC(=O)C=C1CC[C@@H]1[C@@H]2[C@@H](O)C[C@@]2(C)[C@H]1CC[C@]2(O)C(=O)CO` [prednisolone, reference compound], the IC50 with T-cell proliferation came to 9.75 ± 0.03 µM.

Consider `CNC(=N)NCCC[C@H](N)C(=O)O` [L-NMMA, NG-Monomethyl-L-arginine, monoacetate salt, reference compound], for which the IC50 in data set [2] (setting [7]) came out at 128.2 ± 0.8 µM.

In the case of `C[C@@H]1CC2=CC(=O)CC[C@@H]2[C@H]2CC[C@@]3(C)[C@@H](CC[C@]3(C)O)[C@@H]21` [Compound 1, Mibolerone], the IC50 with T-cell proliferation is 6.55 ± 0.6 µM; in data set [1], 0.372 ± 0.009 µM; with TNF-α production (setting [5]), 115.8 ± 0.7 µM; in data set [3], 80 ± 2.1 µM; in data set [2] (setting [7]) it was 46 ± 2.4 µM.

For the compound `C[C@@H]1C(=O)C2CC(=O)CC[C@@H]2[C@H]2CC[C@@]3(C)[C@@H](CC[C@]3(C)O)[C@@H]21` (stereo partly drawn) [Compound 5, 17β-hydroxy-7α,17α-dimethyl-5α-estrane-3,6-dione], the “IC50 against T-cell proliferation” value with T-cell proliferation was “inactive”. Besides, the “IC50 against human placental aromatase enzyme” value in data set [1] (testosterone to 17β-estradiol conversion, in vitro) is “inactive”. Besides, the “IC50 against TNF-α production” value with TNF-α production (setting [5]) was “inactive”. The IC50 in data set [2] (setting [7]) was 52.7 ± 0.3 µM.

As for `CC(=O)CCCCn1c(=O)c2c(ncn2C)n(C)c1=O` [pentoxifylline, reference compound], the IC50 in the data set on TNF-α production (THP-1, 4 h) came to 341 ± 2.1 µM.

On to `C[C@@H]1C[C@H]2C[C@H](O)CC[C@]2(O)[C@H]2CC[C@@]3(C)[C@@H](CC[C@]3(C)O)[C@H]12` [Compound 4, 3α,10β,17β-trihydroxy-7α,17α-dimethyl-5α-estrane], for which the “IC50 against T-cell proliferation” value with T-cell proliferation is “inactive”. Moreover, the IC50 turned out to be 0.072 ± 0.001 µM in data set [1] (setting [4]); 28.5 ± 0.07 µM with TNF-α production (THP-1, 4 h); 58 ± 0.1 µM in data set [2] (setting [6]).

Turning to `CC1=CC2=CC(=O)CC[C@@H]2[C@H]2CC[C@@]3(C)[C@@H](CC[C@]3(C)O)[C@H]12` [Compound 2, 17β-hydroxy-7α,17α-dimethylestr-4,6-diene-3-one], the IC50 in the data set on T-cell proliferation came out at 3.83 ± 0.3 µM; in data set [1] (setting [4]), 0.31 ± 0.028 µM; in data set [2] (setting [7]), 54.4 ± 0.3 µM. In addition, in the data set on TNF-α production (setting [5]), the “IC50 against TNF-α production” value is “inactive”.

(Values after US20210369740A1, “Synthesis of Anti-inflammatory and Anti-cancer Agents through Fungal Transformation of Mibolerone” (priority 2021, published 2021).)
